Laboratory results from US20100048564A1, “FUSED BICYCLIC HETEROARYL DERIVATIVE” (DAIICHI SANKYO COMPANY, LIMITED, priority 2007, published 2010).

system: KK mice; test: Hypoglycemic effect in diabetic KK mice (Test Example 1); type: in vivo; conditions: Mus musculus, po, 72 h; male KK mice, diet admixture containing 0.03% of the compound, 3 days, plasma glucose vs control group; read-out: Hypoglycemic rate (%)
Description: Six-week-old male KK mice were purchased from CLEA Japan, Inc. and then were fed until 15 to 20 weeks old to develop diabetes. The mice were individually fed during the adaptation period and the test period, and water and feed (FR2, Funabashi Farm) were freely ingested.
At the start of the experiment, after body weight measurement, blood was collected from the tail vein of the mice into a heparin-coated glass tube and centrifuged, and then plasma was separated. The glucose level in the plasma was measured by Glucoloader GXT (A&T Corp.), and individuals having a plasma glucose level of about 350 mg/dl or more were selected. The mice were grouped, each group having 3 to 4 mice, to make the average body weight and the average plasma glucose level similar. Each compound was administered to a compound group with a diet admixture containing 0.03% of the compound. A separate group in which the mice were fed only with diet was a control group.
The experiment period (drug administration period) was three days. The grouping day was the 0th day. On the 3rd day, the body weight was measured and blood was collected from the tail vein to measure the plasma glucose level.
The hypoglycemic rate was determined by the following formula.
Hypoglycemic rate=[(Control group blood glucose level−Compound-administered group blood glucose level)/Control group blood glucose level]×100

Row | Compound | inhibition in vivo at 0.03 % in diet
1 | Cn1c(COc2cccc(C(=O)O)c2)nc2ccc(Oc3ccccc3F)cc21 [Example 28, 3-{[6-(2-Fluorophenoxy)-1-methyl-1H-benzimidazol-2-yl]methoxy}benzoic acid] | 61%
2 | COc1cccc(Oc2ccc3nc(COc4cccc(C(=O)O)c4)n(C)c3c2)c1 [Example 29, 3-{[6-(3-Methoxyphenoxy)-1-methyl-1H-benzimidazol-2-yl]methoxy}benzoic acid] | 60%
3 | Cl.Cn1c(COc2cccc(C(=O)O)c2)nc2ccc(Oc3cccc(Cl)c3)cc21 [Example 31, 3-[6-(3-Chlorophenoxy)-1-methyl-1H-benzimidazol-2-ylmethoxy]benzoic acid hydrochloride] | 47%
4 | Cn1c(COc2cccc(C(=O)O)c2)nc2ccc(Oc3cccc(OC(F)(F)F)c3)cc21 [Example 33, 3-({1-Methyl-6-[3-(trifluoromethoxy)phenoxy]-1H-benzimidazol-2-yl}methoxy]benzoic acid] | 42%
5 | Cn1c(COc2cccc(C(=O)O)c2)nc2ccc(Oc3cc(F)ccc3F)cc21 [Example 41, 3-{[6-(2,5-Difluorophenoxy)-1-methyl-1H-benzimidazol-2-yl]methoxy}benzoic acid] | 51%
6 | CCc1cccc(Oc2ccc3nc(COc4cccc(C(=O)O)c4)n(C)c3c2)c1 [Example 42, 3-{[6-(3-Ethylphenoxy)-1-methyl-1H-benzimidazol-2-yl]methoxy}benzoic acid] | 29%
7 | Cc1ccc(Oc2ccc3nc(COc4cccc(C(=O)O)c4)n(C)c3c2)cc1 [Example 49, 3-{[1-Methyl-6-(4-methylphenoxy)-1H-benzimidazol-2-yl]methoxy}benzoic acid] | 48%
8 | COc1cc(Oc2ccc3nc(COc4cccc(C(=O)O)c4)n(C)c3c2)ccc1C [Example 54, 3-{[6-(3-Methoxy-4-methylphenoxy)-1-methyl-1H-benzimidazol-2-yl]methoxy}benzoic acid] | 32%
9 | Cc1ccc(Oc2ccc3nc(COc4cccc(C(=O)O)c4)n(C)c3c2)cc1C [Example 55, 3-{[6-(3,4-Dimethylphenoxy)-1-methyl-1H-benzimidazol-2-yl]methoxy}benzoic acid] | 44%
10 | Cn1c(COc2cc(F)cc(C(=O)O)c2)nc2ccc(Oc3ccc(Cl)c(F)c3)cc21 [Example 59, 3-{[6-(4-Chloro-3-fluorophenoxy)-1-methyl-1H-benzimidazol-2-yl]methoxy}-5-fluorobenzoic acid] | 47%
11 | CCC(CC)Oc1ccc2nc(COc3cccc(C(=O)O)c3)n(C)c2c1 [Example 67, 3-{[6-(1-Ethylpropoxy)-1-methyl-1H-benzimidazol-2-yl]methoxy}benzoic acid] | 50%
12 | Cc1ccc(Oc2ccc3nc(COc4cccc(C(=O)O)c4)n(C)c3n2)cc1 [Example 69, 3-{[3-Methyl-5-(4-methylphenoxy)-3H-imidazo[4,5-b]pyridin-2-yl]methoxy}benzoic acid] | 43%
13 | Cc1ccc(Oc2ccc3nc(COc4cccc(C(=O)O)c4)n(C)c3n2)cc1C [Example 70, 3-{[5-(3,4-Dimethylphenoxy)-3-methyl-3H-imidazo[4,5-b]pyridin-2-yl]methoxy}benzoic acid] | 38%
14 | Cc1ccc(Oc2ccc3nc(COc4cc(F)cc(C(=O)O)c4)n(C)c3n2)cc1 [Example 72, 3-Fluoro-5-{[3-methyl-5-(4-methylphenoxy)-3H-imidazo[4,5-b]pyridin-2-yl]methoxy}benzoic acid] | 42%

system: not given; test: not given; conditions: not given

Row | Compound | melting point
15 | COC(=O)c1cccc(OCc2nc3ccc(Oc4cccnc4)cc3n2C)c1.Cl.Cl | 195 to 208 °C
16 | Cl.Cn1c(COc2cccc(C(=O)O)c2)nc2ccc(Oc3cccc(Cl)c3)cc21 [Example 31, 3-[6-(3-Chlorophenoxy)-1-methyl-1H-benzimidazol-2-ylmethoxy]benzoic acid hydrochloride] | 218 to 222 °C
17 | Cn1c(COc2cccc(C(=O)O)c2)nc2ccc(Oc3cccc(OC(F)(F)F)c3)cc21 [Example 33, 3-({1-Methyl-6-[3-(trifluoromethoxy)phenoxy]-1H-benzimidazol-2-yl}methoxy]benzoic acid] | 221 to 227 °C
18 | Cn1c(COc2cccc(C(=O)O)c2)nc2ccc(Oc3cc(F)cc(Cl)c3)cc21 [Example 38, 3-{[6-(3-Chloro-5-fluorophenoxy)-1-methyl-1H-benzimidazol-2-yl]methoxy}benzoic acid] | 209 to 213 °C
19 | Cc1cc(F)cc(Oc2ccc3nc(COc4cccc(C(=O)O)c4)n(C)c3c2)c1 [Example 40, 3-{[6-(3-Fluoro-5-methylphenoxy)-1-methyl-1H-benzimidazol-2-yl]methoxy}benzoic acid] | 224 to 226 °C
20 | CCc1cccc(Oc2ccc3nc(COc4cccc(C(=O)O)c4)n(C)c3c2)c1 [Example 42, 3-{[6-(3-Ethylphenoxy)-1-methyl-1H-benzimidazol-2-yl]methoxy}benzoic acid] | 204 to 208 °C
